From patent publication US8871753B2, “Macrocyclic compounds and their use as kinase inhibitors” (Incyte Corporation, priority 2008, dated 2014)
Where a name gives a salt, the structure may show the parent alone.

Tests used:
Format in all cases: biochemical
[1] = target: T1, human JAK1 (a.a. 837-1142) (Homo sapiens, UniProt P23458); experiment: In vitro JAK kinase assay (HTRF, phosphorylation of a biotinylated peptide), JAK1; conditions: method AA1 (90 μM ATP) or AA2 (1000 μM ATP), not stated per value; read-out: JAK1 IC50
T1 construct: human JAK1 (a.a. 837-1142); His tag (N); made in house; host or cells: insect cells (baculovirus)
T1 sequence (P23458 849-1154): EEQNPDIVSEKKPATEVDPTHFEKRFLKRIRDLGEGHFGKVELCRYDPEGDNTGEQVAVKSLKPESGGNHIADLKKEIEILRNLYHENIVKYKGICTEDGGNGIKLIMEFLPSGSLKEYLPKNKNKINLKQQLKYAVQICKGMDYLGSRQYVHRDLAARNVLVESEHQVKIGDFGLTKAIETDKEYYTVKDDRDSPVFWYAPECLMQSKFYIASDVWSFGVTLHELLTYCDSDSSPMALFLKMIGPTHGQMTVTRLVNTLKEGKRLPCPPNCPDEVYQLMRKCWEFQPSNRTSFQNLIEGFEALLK
Summary of the method: (§1)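 Phosphorylation of a biotinylated peptide by the JAK kinase domain, detected by HTRF with Eu-Py20 and SA-APC. ATP was 90 μM for JAK1, 30 μM for JAK2 and 3 μM for JAK3. Reactions ran 1 h at room temperature and were stopped with EDTA, followed by 40 min antibody binding.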

[2] = target: T2, human JAK2 (a.a. 828-1132) (Homo sapiens, UniProt O60674); experiment: In vitro JAK kinase assay (HTRF, phosphorylation of a biotinylated peptide), JAK2; conditions: method AA1 (30 μM ATP) or AA2 (1000 μM ATP), not stated per value
T2 construct: JAK2 (a.a. 828-1132); His tag (N); made in house; host or cells: insect cells (baculovirus)
T2 sequence (O60674 828-1132): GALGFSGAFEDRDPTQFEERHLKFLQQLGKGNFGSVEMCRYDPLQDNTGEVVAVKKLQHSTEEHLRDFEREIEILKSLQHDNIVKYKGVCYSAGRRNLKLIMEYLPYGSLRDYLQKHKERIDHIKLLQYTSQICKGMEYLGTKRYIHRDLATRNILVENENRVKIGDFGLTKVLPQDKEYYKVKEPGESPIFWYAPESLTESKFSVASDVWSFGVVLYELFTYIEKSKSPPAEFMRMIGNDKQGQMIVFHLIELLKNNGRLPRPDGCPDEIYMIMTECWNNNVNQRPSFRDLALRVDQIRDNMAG
Summary of the method: as §1

[3] = target: T3, human JAK3 (a.a. 781-1124) (Homo sapiens, UniProt P52333); experiment: In vitro JAK kinase assay (HTRF, phosphorylation of a biotinylated peptide), JAK3; conditions: method AA1 (3 μM ATP) or AA2 (1000 μM ATP), not stated per value
T3 construct: JAK3 (a.a. 781-1124); His tag (N); made in house; host or cells: insect cells (baculovirus)
T3 sequence (P52333 781-1124): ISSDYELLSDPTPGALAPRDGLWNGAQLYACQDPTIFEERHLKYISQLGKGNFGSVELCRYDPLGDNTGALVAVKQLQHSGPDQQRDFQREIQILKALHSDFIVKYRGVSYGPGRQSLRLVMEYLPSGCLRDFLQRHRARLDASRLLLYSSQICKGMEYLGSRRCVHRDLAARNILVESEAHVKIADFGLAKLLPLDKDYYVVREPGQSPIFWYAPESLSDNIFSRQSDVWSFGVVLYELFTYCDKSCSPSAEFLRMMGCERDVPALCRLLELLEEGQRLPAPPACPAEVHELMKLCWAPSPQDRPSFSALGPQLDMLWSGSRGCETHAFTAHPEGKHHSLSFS
Summary of the method: as §1

[4] = target: TYK2 (Homo sapiens, UniProt P29597); experiment: TYK2 kinase inhibition (Table A1)
TYK2, sequence (P29597 whole entry): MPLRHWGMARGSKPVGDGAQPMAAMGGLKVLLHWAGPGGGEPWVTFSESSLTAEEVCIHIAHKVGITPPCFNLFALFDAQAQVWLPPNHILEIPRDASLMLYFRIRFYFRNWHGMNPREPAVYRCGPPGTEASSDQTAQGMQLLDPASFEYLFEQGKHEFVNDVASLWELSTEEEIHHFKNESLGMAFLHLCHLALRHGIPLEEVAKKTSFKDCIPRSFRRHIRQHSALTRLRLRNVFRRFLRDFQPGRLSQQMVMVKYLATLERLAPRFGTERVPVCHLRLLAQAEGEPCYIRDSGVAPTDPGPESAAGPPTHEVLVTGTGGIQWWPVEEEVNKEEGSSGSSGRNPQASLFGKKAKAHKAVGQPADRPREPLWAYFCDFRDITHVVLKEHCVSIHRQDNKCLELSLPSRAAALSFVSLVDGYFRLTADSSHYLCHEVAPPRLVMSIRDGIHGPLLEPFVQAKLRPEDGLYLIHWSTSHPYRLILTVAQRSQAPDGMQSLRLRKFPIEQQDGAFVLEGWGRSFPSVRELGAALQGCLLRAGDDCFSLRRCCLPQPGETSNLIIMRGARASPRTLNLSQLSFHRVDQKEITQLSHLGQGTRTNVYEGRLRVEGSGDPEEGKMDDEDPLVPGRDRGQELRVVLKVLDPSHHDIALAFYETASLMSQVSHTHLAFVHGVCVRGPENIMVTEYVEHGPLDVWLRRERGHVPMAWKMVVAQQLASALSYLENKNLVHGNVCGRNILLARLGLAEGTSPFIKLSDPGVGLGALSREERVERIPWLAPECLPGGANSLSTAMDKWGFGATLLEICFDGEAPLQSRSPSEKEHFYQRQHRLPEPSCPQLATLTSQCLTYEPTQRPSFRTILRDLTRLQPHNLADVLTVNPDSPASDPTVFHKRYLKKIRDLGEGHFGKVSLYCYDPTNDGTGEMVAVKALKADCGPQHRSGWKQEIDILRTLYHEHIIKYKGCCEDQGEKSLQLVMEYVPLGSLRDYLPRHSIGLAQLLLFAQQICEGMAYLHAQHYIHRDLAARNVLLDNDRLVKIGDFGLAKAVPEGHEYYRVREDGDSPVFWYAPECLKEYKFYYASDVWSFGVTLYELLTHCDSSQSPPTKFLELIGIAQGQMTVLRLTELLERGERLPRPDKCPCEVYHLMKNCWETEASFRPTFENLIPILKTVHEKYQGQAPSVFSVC

[5] = target: T4, Recombinant Human Anaplastic Lymphoma Kinase (Homo sapiens, UniProt Q9UM73); experiment: ALK HTRF kinase assay; conditions: compound at 500 nM or 1 mM; 90 μM ATP
T4 construct: purchased Invitrogen, Carlsbad, Calif
T4 sequence (Q9UM73 19-1620): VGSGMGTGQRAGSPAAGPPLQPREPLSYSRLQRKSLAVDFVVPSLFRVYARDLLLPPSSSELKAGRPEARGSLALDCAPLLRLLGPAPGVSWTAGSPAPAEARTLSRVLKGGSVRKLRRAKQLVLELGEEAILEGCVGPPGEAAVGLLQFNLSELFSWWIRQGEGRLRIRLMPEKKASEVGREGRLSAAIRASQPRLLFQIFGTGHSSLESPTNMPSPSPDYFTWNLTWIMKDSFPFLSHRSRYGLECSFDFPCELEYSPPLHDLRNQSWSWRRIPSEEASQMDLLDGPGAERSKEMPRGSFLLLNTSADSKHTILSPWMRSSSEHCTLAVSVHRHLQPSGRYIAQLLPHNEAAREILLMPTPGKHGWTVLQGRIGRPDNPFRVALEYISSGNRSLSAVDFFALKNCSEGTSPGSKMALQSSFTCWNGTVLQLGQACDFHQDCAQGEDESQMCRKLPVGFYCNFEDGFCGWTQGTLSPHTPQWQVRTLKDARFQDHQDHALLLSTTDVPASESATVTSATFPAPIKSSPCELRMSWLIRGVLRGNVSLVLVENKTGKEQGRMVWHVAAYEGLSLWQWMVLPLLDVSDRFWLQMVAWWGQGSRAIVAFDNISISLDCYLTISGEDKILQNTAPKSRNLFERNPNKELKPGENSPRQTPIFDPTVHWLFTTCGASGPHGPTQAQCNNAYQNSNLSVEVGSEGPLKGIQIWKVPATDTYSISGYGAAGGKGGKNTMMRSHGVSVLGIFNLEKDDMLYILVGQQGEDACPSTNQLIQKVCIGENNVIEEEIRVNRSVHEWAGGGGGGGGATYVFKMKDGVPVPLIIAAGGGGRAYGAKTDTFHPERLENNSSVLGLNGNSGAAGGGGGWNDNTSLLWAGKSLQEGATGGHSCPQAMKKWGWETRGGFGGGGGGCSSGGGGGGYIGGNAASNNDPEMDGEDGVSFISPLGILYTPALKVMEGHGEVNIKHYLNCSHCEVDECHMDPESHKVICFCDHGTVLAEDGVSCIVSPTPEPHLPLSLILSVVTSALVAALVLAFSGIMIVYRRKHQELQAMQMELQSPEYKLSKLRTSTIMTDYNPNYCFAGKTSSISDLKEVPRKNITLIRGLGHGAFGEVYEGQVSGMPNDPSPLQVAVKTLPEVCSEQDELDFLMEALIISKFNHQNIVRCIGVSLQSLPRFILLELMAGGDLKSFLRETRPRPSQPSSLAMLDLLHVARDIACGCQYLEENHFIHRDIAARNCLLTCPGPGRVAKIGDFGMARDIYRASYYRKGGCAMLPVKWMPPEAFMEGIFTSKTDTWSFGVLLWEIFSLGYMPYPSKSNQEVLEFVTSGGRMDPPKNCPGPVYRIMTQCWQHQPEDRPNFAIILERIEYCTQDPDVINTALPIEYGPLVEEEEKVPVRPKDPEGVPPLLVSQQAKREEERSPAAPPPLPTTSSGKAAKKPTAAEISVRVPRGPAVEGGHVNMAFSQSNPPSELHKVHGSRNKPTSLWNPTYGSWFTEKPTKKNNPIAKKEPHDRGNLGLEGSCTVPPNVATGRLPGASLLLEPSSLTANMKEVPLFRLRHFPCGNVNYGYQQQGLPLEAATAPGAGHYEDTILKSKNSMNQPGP
Summary of the method: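 Kinase activity of the recombinant human protein is measured on a biotinylated peptide, with a Eu-W1024 anti-phosphotyrosine antibody and streptavidin-allophycocyanin generating the homogeneous time-resolved fluorescence signal. Inhibition curves are fitted to yield IC50.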

| Compound | IC50 [1] [nM] | IC50 [2] [nM] | IC50 [3] [nM] | IC50 [4] [nM] | ALK % of inhibition at a concentration of 500 nM or 1 mM [5] [%] |
| --- | --- | --- | --- | --- | --- |
| O=C(Nc1ccc2cc1CCc1cccc(c1)Nc1ncc(Cl)c(n1)N2)C1CCCN(C(=O)NC2CCCC2)C1 (centres unmarked) [Example A62, N(3)-[6-Chloro-2,4,8,22-tetraazatetracyclo[14.3.1.1(3,7).1(9,13)]docosa-1(20),3(22),4,6,9(21),10,12,16,18-nonaen-12-yl]-N(1)-cyclopentylpiperidine-1,3-dicarboxamide trifluoroacetate] | 7 | 5.6 | 9.1 | 12 | 26 |
| O=C(Nc1ccc2cc1CCc1cccc(c1)Nc1ncc(Cl)c(n1)N2)[C@@H]1CCN(C(=O)NC2CCCC2)C1 [Example A63, (3R)—N(3)-[6-Chloro-2,4,8,22-tetraazatetracyclo[14.3.1.1(3,7).1(9,13)]docosa-1(20),3(22),4,6,9(21),10,12,16,18-nonaen-12-yl]-N(1)-cyclopentylpyrrolidine-1,3-dicarboxamide trifluoroacetate] | 9 | 2.5 | 2.6 | 13 | 29 |
| O=C(CC1CCN(C(=O)NC2CCCC2)CC1)Nc1ccc2cc1CCc1cccc(c1)Nc1ncc(Cl)c(n1)N2 [Example A64, 4-(2-{[6-Chloro-2,4,8,22-tetraazatetracyclo[14.3.1.1(3,7).1(9,13)]docosa-1(20),3(22),4,6,9(21),10,12,16,18-nonaen-12-yl]amino}-2-oxoethyl)-N-cyclopentylpiperidine-1-carboxamide trifluoroacetate] | 13 | 6.5 | 30 | 23 | 23 |
| N#CCC(=O)Nc1ccc2cc1CCc1cccc(c1)Nc1ncc(Cl)c(n1)N2 [Example A65, N-[6-Chloro-2,4,8,22-tetraazatetracyclo[14.3.1.1(3,7).1(9,13)]docosa-1(20), 3(22),4,6,9(21),10,12,16,18-nonaen-12-yl]-2-cyanoacetamide trifluoroacetate] | 9 | 11 | 7.3 | 17 | 39 |
| O=C(CNC(=O)Nc1ccccc1)Nc1ccc2cc1CCc1cccc(c1)Nc1ncc(Cl)c(n1)N2 [Example A66, 2-[(Anilinocarbonyl)amino]-N-[6-chloro-2,4,8,22-tetraazatetracyclo[14.3.1.1(3,7).1(9,13)]docosa-1(20),3(22),4,6,9(21),10,12,16,18-nonaen-12-yl]acetamide trifluoroacetate] | 9 | 3.1 | 6.2 | 21 | 26 |

More lines, now with the values ahead:

| IC50 [1] [nM] | IC50 [2] [nM] | IC50 [3] [nM] | IC50 [4] [nM] | ALK % of inhibition at a concentration of 500 nM or 1 mM [5] [%] | Compound |
| --- | --- | --- | --- | --- | --- |
| 8 | 2.8 | 7.7 | 10 | 40 | O=C(CCNC(=O)Nc1ccccc1)Nc1ccc2cc1CCc1cccc(c1)Nc1ncc(Cl)c(n1)N2 [Example A67, 3-[(Anilinocarbonyl)amino]-N-[6-chloro-2,4,8,22-tetraazatetracyclo[14.3.1.1(3,7).1(9,13)]docosa-1(20),3(22),4,6,9(21),10,12,16,18-nonaen-12-yl]propanamide trifluoroacetate] |
| 2 | 2.8 | 4.1 | 11 | 46 | O=C(Nc1ccccc1)N[C@@H](CO)C(=O)Nc1ccc2cc1CCc1cccc(c1)Nc1ncc(Cl)c(n1)N2 [Example A68, (2S)-2-[(Anilinocarbonyl)amino]-N-[6-chloro-2,4,8,22-tetraazatetracyclo[14.3.1.1(3,7).1(9,13)]docosa-1(20),3(22),4,6,9(21),10,12,16,18-nonaen-12-yl]-3-hydroxypropanamide trifluoroacetate] |
